Test: Solubility of SR2516 and SR3406 in selected oils
Format: physicochemical
Conditions: shaken overnight at 25 deg C, filtrate, HPLC
Protocol: This purpose of this study was to select an oil system as the vehicle base for the self-emosifying formulation based on the solubility
Procedure • 1. Add 25 mg of each API in 2 mL eppendoff vial. Record weight. • 2. Weigh out each excipient. Record weight. • 3. Beadbeater 100 sec to mix well. If all dissolved, add additional 5-10 mg each time until excess solid is present. • 4. Use a platform shaker to shake all vials overnight at 25 deg C. • 5. Observe for clarity, presence and relative amount of precipitates. • 6. Filter using spin-X (0.22 um). • 7. Dilute the filtrate to normal concentration for HPLC analysis for drug concentration and purity %. • 8. Keep the filtrate at room temperature and observe for ppt at longer time point(s) if needed. Results Analysis on Filtrate Samples

Row | SMILES | Solubility (in Capmul MCM (F2)) [mg/g] | Solubility (in Castor oil (F4)) [mg/g] | Solubility (in Labrafil M 1944 CS (F3)) [mg/g] | Solubility (in Miglyol 812 (F1)) [mg/g] | Solubility (in Oleic acid (F5)) [mg/g]
1 | CNC(=O)c1cc(F)ccc1Nc1cc(Nc2ccc(N3CCOCC3)cc2OC)ncc1C(F)(F)F [SR-3406] | 13.6 | 4.9 | 1.0 | 0.3 | 0.4
2 | CNC(=O)c1ccccc1Nc1cc(Nc2ccc(N3CCOCC3)cc2OC)ncc1C(F)(F)F [SR-2516] | 8.4 | 1.5 | 2.2 | 0.3 | 5.8

Source: patent US9375402B2, “Oral formulations of kinase inhibitors” (VERASTEM, INC., priority 2010, dated 2016)
